Measured values taken from patent US20210253575A1, “PYRROLIDINE AMINE COMPOUNDS FOR THE TREATMENT OF AUTOIMMUNE DISEASE” (Hoffmann-La Roche Inc., priority 2018, published 2021).

Each compound was assayed against T1, human TLR8 (Homo sapiens, UniProt Q9NR97) (assay: HEK293-Blue-hTLR-8 cells assay (SEAP reporter, R848 stimulation)). Conditions: HEK293-Blue-hTLR8 cells, R848 ligand, 20 hrs incubation.
T1 sequence (Q9NR97 27-1041): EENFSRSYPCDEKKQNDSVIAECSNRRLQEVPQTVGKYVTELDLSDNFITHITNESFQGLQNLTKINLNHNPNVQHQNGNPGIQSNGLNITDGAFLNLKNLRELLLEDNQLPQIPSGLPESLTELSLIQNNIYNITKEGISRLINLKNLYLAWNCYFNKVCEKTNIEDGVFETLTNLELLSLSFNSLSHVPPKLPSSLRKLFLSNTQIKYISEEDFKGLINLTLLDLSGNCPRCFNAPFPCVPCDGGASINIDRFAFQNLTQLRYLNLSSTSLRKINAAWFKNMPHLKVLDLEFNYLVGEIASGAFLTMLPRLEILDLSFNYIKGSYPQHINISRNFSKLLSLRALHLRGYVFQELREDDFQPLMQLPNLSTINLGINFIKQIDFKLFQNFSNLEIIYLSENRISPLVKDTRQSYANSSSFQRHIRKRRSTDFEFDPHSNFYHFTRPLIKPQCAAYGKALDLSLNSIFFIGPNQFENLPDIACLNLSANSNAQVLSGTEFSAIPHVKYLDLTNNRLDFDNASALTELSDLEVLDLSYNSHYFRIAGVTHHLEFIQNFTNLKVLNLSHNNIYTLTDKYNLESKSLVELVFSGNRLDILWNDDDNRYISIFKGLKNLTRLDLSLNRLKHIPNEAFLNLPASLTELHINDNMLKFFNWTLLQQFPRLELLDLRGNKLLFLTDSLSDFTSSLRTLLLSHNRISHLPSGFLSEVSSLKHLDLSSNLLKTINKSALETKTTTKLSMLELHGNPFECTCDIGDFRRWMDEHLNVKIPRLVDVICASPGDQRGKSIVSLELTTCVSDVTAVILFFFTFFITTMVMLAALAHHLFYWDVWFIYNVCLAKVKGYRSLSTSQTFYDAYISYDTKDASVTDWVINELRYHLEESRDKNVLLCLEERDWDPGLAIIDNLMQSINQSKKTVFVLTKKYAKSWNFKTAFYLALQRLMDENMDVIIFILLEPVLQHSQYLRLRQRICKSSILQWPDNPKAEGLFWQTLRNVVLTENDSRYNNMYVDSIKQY
Type: cell-based
Protocol: The following tests were carried out in order to determine the activity of the compounds of formula (I) in HEK293-Blue-hTLR-7/8/9 cells assay.
HEK293-Blue-hTLR-8 Cells Assay:
A stable HEK293-Blue-hTLR-8 cell line was purchased from InvivoGen (Cat. #: hkb-htlr8, San Diego, Calif., USA). These cells were originally designed for studying the stimulation of human TLR8 by monitoring the activation of NF-κB. A SEAP (secreted embryonic alkaline phosphatase) reporter gene was placed under the control of the IFN-β minimal promoter fused to five NF-κB and AP-1-binding sites. The SEAP was induced by activating NF-κB and AP-1 via stimulating HEK-Blue hTLR8 cells with TLR8 ligands. Therefore the reporter expression was declined by TLR8 antagonist under the stimulation of a ligand, such as R848, for incubation of 20 hrs. The cell culture supernatant SEAP reporter activity was determined using QUANTI-Blue™ kit (Cat. #: rep-qb1, Invivogen, San Diego, Ca, USA) at a wavelength of 640 nm, a detection medium that turns purple or blue in the presence of alkaline phosphatase.
HEK293-Blue-hTLR8 cells were incubated at a density of 250,000˜450,000 cells/mL in a volume of 170 μL in a 96-well plate in Dulbecco's Modified Eagle's medium (DMEM) containing 4.5 g/L glucose, 50 U/mL penicillin, […], […], 2 mM L-glutamine, 10% (v/v) heat-inactivated fetal bovine serum with addition of 20 μL test compound in a serial dilution in the presence of final DMSO at 1% and 10 μL of 60 uM R848 in above DMEM, perform incubation under 37° C. in a CO2 incubator for 20 hrs. Then 20 μL of the supernatant from each well was incubated with 180 μL Quanti-blue substrate solution at 37° C. for 2 hrs and the absorbance was read at 620-655 nm using a spectrophotometer. The signalling pathway that TLR8 activation leads to downstream NF-κB activation has been widely accepted, and therefore similar reporter assay was modified for evaluating TLR8 antagonist.

Compound | IC50 [nM]
CC1(N)CCN(C[C@H]2CN(c3ccc(C#N)c4nccnc34)C[C@@H]2C(F)(F)F)CC1 [Example 12, 8-[(3S,4R)-3-[(4-amino-4-methyl-1-piperidyl)methyl]-4-(trifluoromethyl)pyrrolidin-1-yl]quinoxaline-5-carbonitrile] | 31
FC(F)(F)c1ccc(N2CC(CN3C[C@H]4CNC[C@H]4C3)C3(CC3)C2)c2nccnc12 (stereo partly drawn) [Example 41, 5-[7-[[(3aR,6aS)-2,3,3a,4,6,6a-hexahydro-H-pyrrolo[3,4-c]pyrrol-5-yl]methyl]-5-azaspiro[2.4]heptan-5-yl]-8-(trifluoromethyl)quinoxaline] | 357
CC[C@@H]1CN(c2ccc(C#N)c3ncccc23)C[C@H]1CN1CCC2(CCNCC2)CC1 (relative stereo) [Example 15, 5-[Trans-3-(3,9-diazaspiro[5.5]undecan-3-ylmethyl)-4-ethyl-pyrrolidin-1-yl]quinoline-8-carbonitrile] | 190
N#Cc1ccc(N2C[C@H](CN3CCC(N4CCCCCC4)CC3)[C@@H](C(F)(F)F)C2)c2nccnc12 [Example 62, 8-[(3S,4R)-3-[[4-(Azepan-1-yl)-1-piperidyl]methyl]-4-(trifluoromethyl)pyrrolidin-1-yl]quinoxaline-5-carbonitrile] | 28
N#Cc1ccc(N2CC(CN3C[C@H]4CNC[C@H]4C3)C3(CC3)C2)c2nccnc12 (stereo partly drawn) [Example 18, 8-[7-[[(3aR,6aS)-2,3,3a,4,6,6a-hexahydro-H-pyrrolo[3,4-c]pyrrol-5-yl]methyl]-5-azaspiro[2.4]heptan-5-yl]quinoxaline-5-carbonitrile] | 82
N#Cc1ccc(N2C[C@H](CN3CCC4(CCCNC4)C3)[C@@H](C(F)(F)F)C2)c2cccnc12 (stereo partly drawn) [Example 6, 5-[(3S,7R)-3-(2,9-diazaspiro[4.5]decan-2-ylmethyl)-4-(trifluoromethyl)pyrrolidin-1-yl]quinoline-8-carbonitrile] | 39
N#Cc1ccc(N2CC(CN3CCC4(CC3)CNCCO4)C3(CC3)C2)c2nccnc12 (stereo not drawn) [Example 49, 8-[7-(1-Oxa-4,9-diazaspiro[5.5]undecan-9-ylmethyl)-5-azaspiro[2.4]heptan-5-yl]quinoxaline-5-carbonitrile] | 24
N#Cc1ccc(N2CC(CN3CCC(N)CC3)C3(CC3)C2)c2nccnc12 (single isomer, unassigned) [Example 68A, 8-[7-[(4-Amino-1-piperidyl)methyl]-5-azaspiro[2.4]heptan-5-yl]quinoxaline-5-carbonitrile] | 60
N#Cc1ccc(N2CC(CN3CCC4(CCCNC4)C3)C3(CC3)C2)c2nccnc12 (stereo not drawn) [Example 22, 8-[7-(2,9-Diazaspiro[4.5]decan-2-ylmethyl)-5-azaspiro[2.4]heptan-5-yl]quinoxaline-5-carbonitrile] | 79
N#Cc1ccc(N2CC(CN3CCC4(CCCCN4)CC3)C3(CC3)C2)c2nccnc12 (stereo not drawn) [Example 65, 8-[7-(1,9-Diazaspiro[5.5]undecan-9-ylmethyl)-5-azaspiro[2.4]heptan-5-yl]quinoxaline-5-carbonitrile] | 92
N#Cc1ccc(N2C[C@H](CN3C4CCC3CC(N)C4)[C@@H](C(F)(F)F)C2)c2nccnc12 (stereo partly drawn) [Example 63, 8-[(3S,4R)-3-[(3-amino-8-azabicyclo[3.2.1]octan-8-yl)methyl]-4-(trifluoromethyl)pyrrolidin-1-yl]quinoxaline-5-carbonitrile] | 25
N#Cc1ccc(N2C[C@H](CN3CCC(N4CCCC4)CC3)[C@@H](C(F)(F)F)C2)c2nccnc12 [Example 60, 8-[(3S,4R)-3-[(4-Pyrrolidin-1-yl-1-piperidyl)methyl]-4-(trifluoromethyl)pyrrolidin-1-yl]quinoxaline-5-carbonitrile] | 43
N#Cc1ccc(N2C[C@H](CN3CCC4(CC3)CNCCO4)[C@@H](C(F)(F)F)C2)c2nccnc12 [Example 70, 8-[(3S,4R)-3-(1-oxa-4,9-diazaspiro[5.5]undecan-9-ylmethyl)-4-(trifluoromethyl)pyrrolidin-1-yl]quinoxaline-5-carbonitrile] | 20
CNCC1CCN(C[C@H]2CN(c3ccc(C#N)c4nccnc34)C[C@@H]2C(F)(F)F)CC1 [Example 81, 8-[(3S,4R)-3-[[4-(methylaminomethyl)-1-piperidyl]methyl]-4-(trifluoromethyl)pyrrolidin-1-yl]quinoxaline-5-carbonitrile] | 25
FC(F)(F)c1ccc(N2CC(CN3CCNCC3)C3(CC3)C2)c2nccnc12 (stereo not drawn) [Example 20, 5-[7-(Piperazin-1-ylmethyl)-5-azaspiro[2.4]heptan-5-yl]-8-(trifluoromethyl)quinoxaline] | 68
N#Cc1ccc(N2C[C@H](CN3CCC4(CCNCC4)CC3)[C@@H](C(F)(F)F)C2)c2nccnc12 [Example 1, 8-[(3S,4R)-3-(3,9-diazaspiro[5.5]undecan-3-ylmethyl)-4-(trifluoromethyl)pyrrolidin-1-yl]quinoxaline-5-carbonitrile] | 20
N#Cc1ccc(N2CC(CN3CCC4(CCNCC4)CC3)C3(CC3)C2)c2nccnc12 (stereo not drawn) [Example 16, 8-[7-(3,9-Diazaspiro[5.5]undecan-3-ylmethyl)-5-azaspiro[2.4]heptan-5-yl]quinoxaline-5-carbonitrile] | 133
N#Cc1ccc(N2C[C@H](CN3CC4(CCNCC4)C3)[C@@H](C(F)(F)F)C2)c2nccnc12 [Example 48, 8-[(3S,4R)-3-(2,7-diazaspiro[3.5]nonan-2-ylmethyl)-4-(trifluoromethyl)pyrrolidin-1-yl]quinoxaline-5-carbonitrile] | 37
N#Cc1ccc(N2CC(CN3CCOC4(CCNCC4)C3)C3(CC3)C2)c2nccnc12 (stereo not drawn) [Example 67, 8-[7-(1-Oxa-4,9-diazaspiro[5.5]undecan-4-ylmethyl)-5-azaspiro[2.4]heptan-5-yl]quinoxaline-5-carbonitrile] | 41
CC1(CN)CCCN(C[C@H]2CN(c3ccc(C#N)c4nccnc34)C[C@@H]2C(F)(F)F)C1 (stereo partly drawn) [Example 75, 8-[(3S,4R)-3-[[3-(aminomethyl)-3-methyl-1-piperidyl]methyl]-4-(trifluoromethyl)pyrrolidin-1-yl]quinoxaline-5-carbonitrile] | 31
N#Cc1ccc(N2C[C@H](CN3CC4(CC(N)C4)C3)[C@@H](C(F)(F)F)C2)c2cccnc12 [Example 53, 5-[(3S,4R)-3-[(6-Amino-2-azaspiro[3.3]heptan-2-yl)methyl]-4-(trifluoromethyl)pyrrolidin-1-yl]quinoline-8-carbonitrile] | 146
N#Cc1ccc(N2CC(CN3CCC4(CCNCC4)C3)C3(CC3)C2)c2nccnc12 (stereo not drawn) [Example 32, 8-[7-(2,8-Diazaspiro[4.5]decan-2-ylmethyl)-5-azaspiro[2.4]heptan-5-yl]quinoxaline-5-carbonitrile] | 111
N#Cc1ccc(N2C[C@H](CNC3CCNCC3)[C@@H](C(F)(F)F)C2)c2nccnc12 [Example 71, 8-[(3S,4R)-3-[(4-piperidylamino)methyl]-4-(trifluoromethyl)pyrrolidin-1-yl]quinoxaline-5-carbonitrile] | 94
N#Cc1ccc(N2C[C@H](CN3CCC(N4CCCCC4)CC3)[C@@H](C(F)(F)F)C2)c2nccnc12 [Example 61, 8-[(3S,4R)-3-[[4-(1-Piperidyl)-1-piperidyl]methyl]-4-(trifluoromethyl)pyrrolidin-1-yl]quinoxaline-5-carbonitrile] | 23
